# From ChEMBL document CHEMBL3576778, “Structure-Activity Relationship Studies of a Series of Semisynthetic Lipopeptides Leading to the Discovery of Surotomycin, a Novel Cyclic Lipopeptide Being Developed for the Treatment of Clostridium difficile-Associated Diarrhea” (J Med Chem, 2015)
# How the values were obtained:
# Assay type in all cases: functional
# Clostridioides difficile [1] = experiment: Antimicrobial activity against daptomycin-resistant Clostridium difficile NAP1 incubated anaerobically at 37 degC for 48 hrs by agar dilution method; settings: NAP1, 48 h
# Staphylococcus aureus [2] = experiment: Antimicrobial activity against daptomycin-susceptible Staphylococcus aureus ATCC 29213 incubated anaerobically at 37 degC for 48 hrs by agar dilution method; settings: ATCC 29213, 48 h
# Enterococcus faecium = experiment: Antimicrobial activity against daptomycin-resistant Enterococcus faecium ATCC 6569 incubated anaerobically at 37 degC for 48 hrs by agar dilution method; settings: ATCC 6569, 48 h
# Enterococcus faecalis = experiment: Potency index, ratio of MIC for daptomycin to MIC for test compound against daptomycin-resistant Enterococcus faecalis ATCC 49452 incubated anaerobically at 37 degC for 48 hrs by agar dilution method
# Staphylococcus aureus [3] = experiment: Antimicrobial activity against daptomycin-non-susceptible Staphylococcus aureus 42 incubated anaerobically at 37 degC for 48 hrs by agar dilution method; settings: Staphylococcus aureus, 42, 48 h
# Staphylococcus aureus [4] = experiment: Antimicrobial activity against daptomycin-non-susceptible Staphylococcus aureus 1145 incubated anaerobically at 37 degC for 48 hrs by agar dilution method; settings: Staphylococcus aureus, 1145, 48 h
# Staphylococcus aureus [5] = experiment: Antimicrobial activity against daptomycin-non-susceptible Staphylococcus aureus 1179 incubated anaerobically at 37 degC for 48 hrs by agar dilution method; settings: Staphylococcus aureus, 1179, 48 h
# Staphylococcus aureus [6] = experiment: Antimicrobial activity against daptomycin-non-susceptible Staphylococcus aureus 5004 incubated anaerobically at 37 degC for 48 hrs by agar dilution method; settings: Staphylococcus aureus, 5004, 48 h
# Staphylococcus aureus [7] = experiment: Antimicrobial activity against daptomycin-non-susceptible Staphylococcus aureus 5005 incubated anaerobically at 37 degC for 48 hrs by agar dilution method; settings: Staphylococcus aureus, 5005, 48 h
# Staphylococcus aureus [8] = experiment: Antimicrobial activity against daptomycin-non-susceptible Staphylococcus aureus 5006 incubated anaerobically at 37 degC for 48 hrs by agar dilution method; settings: Staphylococcus aureus, 5006, 48 h
# Staphylococcus aureus [9] = experiment: Antimicrobial activity against daptomycin-non-susceptible Staphylococcus aureus 5010 incubated anaerobically at 37 degC for 48 hrs by agar dilution method; settings: Staphylococcus aureus, 5010, 48 h
# Staphylococcus aureus [10] = experiment: Antimicrobial activity against daptomycin-non-susceptible Staphylococcus aureus 5012 incubated anaerobically at 37 degC for 48 hrs by agar dilution method; settings: Staphylococcus aureus, 5012, 48 h
# Staphylococcus aureus [11] = experiment: Antimicrobial activity against daptomycin-non-susceptible Staphylococcus aureus 5014 incubated anaerobically at 37 degC for 48 hrs by agar dilution method; settings: Staphylococcus aureus, 5014, 48 h
# Staphylococcus aureus [12] = experiment: Antimicrobial activity against daptomycin-non-susceptible Staphylococcus aureus 5016 incubated anaerobically at 37 degC for 48 hrs by agar dilution method; settings: Staphylococcus aureus, 5016, 48 h
# Staphylococcus aureus [13] = experiment: Antimicrobial activity against daptomycin-non-susceptible Staphylococcus aureus 5017 incubated anaerobically at 37 degC for 48 hrs by agar dilution method; settings: Staphylococcus aureus, 5017, 48 h
# Staphylococcus aureus [14] = experiment: Antimicrobial activity against daptomycin-non-susceptible Staphylococcus aureus 5033 incubated anaerobically at 37 degC for 48 hrs by agar dilution method; settings: Staphylococcus aureus, 5033, 48 h
# Staphylococcus aureus [15] = experiment: Antimicrobial activity against daptomycin-non-susceptible Staphylococcus aureus 5034 incubated anaerobically at 37 degC for 48 hrs by agar dilution method; settings: Staphylococcus aureus, 5034, 48 h
# Staphylococcus aureus [16] = experiment: Antimicrobial activity against daptomycin-non-susceptible Staphylococcus aureus 5060 incubated anaerobically at 37 degC for 48 hrs by agar dilution method; settings: Staphylococcus aureus, 5060, 48 h
# Staphylococcus aureus [17] = experiment: Antimicrobial activity against daptomycin-non-susceptible Staphylococcus aureus 5063 incubated anaerobically at 37 degC for 48 hrs by agar dilution method; settings: Staphylococcus aureus, 5063, 48 h
# Staphylococcus aureus [18] = experiment: Potency index, ratio of MIC for daptomycin to MIC for test compound against daptomycin-non-susceptible Staphylococcus aureus 42 incubated anaerobically at 37 degC for 48 hrs by agar dilution method
# Staphylococcus aureus [19] = experiment: Potency index, ratio of MIC for daptomycin to MIC for test compound against daptomycin-non-susceptible Staphylococcus aureus 1145 incubated anaerobically at 37 degC for 48 hrs by agar dilution method
# Staphylococcus aureus [20] = experiment: Potency index, ratio of MIC for daptomycin to MIC for test compound against daptomycin-non-susceptible Staphylococcus aureus 1326 incubated anaerobically at 37 degC for 48 hrs by agar dilution method
# Staphylococcus aureus [21] = experiment: Potency index, ratio of MIC for daptomycin to MIC for test compound against daptomycin-non-susceptible Staphylococcus aureus 5003 incubated anaerobically at 37 degC for 48 hrs by agar dilution method
# Staphylococcus aureus [22] = experiment: Potency index, ratio of MIC for daptomycin to MIC for test compound against daptomycin-non-susceptible Staphylococcus aureus 5005 incubated anaerobically at 37 degC for 48 hrs by agar dilution method
# Staphylococcus aureus [23] = experiment: Potency index, ratio of MIC for daptomycin to MIC for test compound against daptomycin-non-susceptible Staphylococcus aureus 5006 incubated anaerobically at 37 degC for 48 hrs by agar dilution method
# Staphylococcus aureus [24] = experiment: Potency index, ratio of MIC for daptomycin to MIC for test compound against daptomycin-non-susceptible Staphylococcus aureus 5008 incubated anaerobically at 37 degC for 48 hrs by agar dilution method
# Staphylococcus aureus [25] = experiment: Potency index, ratio of MIC for daptomycin to MIC for test compound against daptomycin-non-susceptible Staphylococcus aureus 5010 incubated anaerobically at 37 degC for 48 hrs by agar dilution method
# Staphylococcus aureus [26] = experiment: Potency index, ratio of MIC for daptomycin to MIC for test compound against daptomycin-non-susceptible Staphylococcus aureus 5014 incubated anaerobically at 37 degC for 48 hrs by agar dilution method
# Staphylococcus aureus [27] = experiment: Potency index, ratio of MIC for daptomycin to MIC for test compound against daptomycin-non-susceptible Staphylococcus aureus 5017 incubated anaerobically at 37 degC for 48 hrs by agar dilution method
# Staphylococcus aureus [28] = experiment: Potency index, ratio of MIC for daptomycin to MIC for test compound against daptomycin-non-susceptible Staphylococcus aureus 5033 incubated anaerobically at 37 degC for 48 hrs by agar dilution method
# Staphylococcus aureus [29] = experiment: Potency index, ratio of MIC for daptomycin to MIC for test compound against daptomycin-non-susceptible Staphylococcus aureus 5060 incubated anaerobically at 37 degC for 48 hrs by agar dilution method
# Staphylococcus aureus [30] = experiment: Potency index, ratio of MIC for daptomycin to MIC for test compound against daptomycin-non-susceptible Staphylococcus aureus 5063 incubated anaerobically at 37 degC for 48 hrs by agar dilution method
# Staphylococcus aureus [31] = experiment: Potency index, ratio of MIC for daptomycin to MIC for test compound against daptomycin-non-susceptible Staphylococcus aureus 5076 incubated anaerobically at 37 degC for 48 hrs by agar dilution method
# Staphylococcus aureus [32] = experiment: Potency index, ratio of MIC for daptomycin to MIC for test compound against daptomycin-non-susceptible Staphylococcus aureus 5080 incubated anaerobically at 37 degC for 48 hrs by agar dilution method
# Staphylococcus aureus [33] = experiment: Potency index, ratio of MIC for daptomycin to MIC for test compound against daptomycin-non-susceptible Staphylococcus aureus 5091 incubated anaerobically at 37 degC for 48 hrs by agar dilution method
# Clostridioides difficile [34] = experiment: Antimicrobial activity against vancomycin-resistant Clostridium difficile
# Prevotella sp. = experiment: Toxicity against Prevotella spp. assessed as inhibition of microbe growth
compound,measurement,setting,value
CCCCCc1ccc(/C(C)=C/C(=O)N[C@@H](Cc2c[nH]c3ccccc23)C(=O)N[C@H](CC(N)=O)C(=O)N[C@@H](CC(=O)O)C(=O)N[C@@H]2C(=O)NCC(=O)N[C@@H](CCCN)C(=O)N[C@@H](CC(=O)O)C(=O)N[C@H](C)C(=O)N[C@@H](CC(=O)O)C(=O)NCC(=O)N[C@H](CO)C(=O)N[C@@H]([C@@H](C)CC(=O)O)C(=O)N[C@@H](CC(=O)c3ccccc3N)C(=O)O[C@@H]2C)cc1,MIC,Clostridioides difficile [1],0.5 µg/mL
same,MIC,Staphylococcus aureus [2],0.25 µg/mL
same,MIC,Enterococcus faecium,4 µg/mL
same,Ratio,Enterococcus faecalis,>8
same,MIC,Staphylococcus aureus [3],0.125 µg/mL
same,MIC,Staphylococcus aureus [4],0.25 µg/mL
same,MIC,Staphylococcus aureus [5],0.25 µg/mL
same,MIC,Staphylococcus aureus [6],0.25 µg/mL
same,MIC,Staphylococcus aureus [7],1 µg/mL
same,MIC,Staphylococcus aureus [8],0.5 µg/mL
same,MIC,Staphylococcus aureus [9],0.25 µg/mL
same,MIC,Staphylococcus aureus [10],0.25 µg/mL
same,MIC,Staphylococcus aureus [11],0.25 µg/mL
same,MIC,Staphylococcus aureus [12],0.5 µg/mL
same,MIC,Staphylococcus aureus [13],0.5 µg/mL
same,MIC,Staphylococcus aureus [14],0.25 µg/mL
same,MIC,Staphylococcus aureus [15],0.5 µg/mL
same,MIC,Staphylococcus aureus [16],1 µg/mL
same,MIC,Staphylococcus aureus [17],1 µg/mL
same,Ratio,Staphylococcus aureus [18],2
same,Ratio,Staphylococcus aureus [19],2
same,Ratio,Staphylococcus aureus [20],2
same,Ratio,Staphylococcus aureus [21],2
same,Ratio,Staphylococcus aureus [22],2
same,Ratio,Staphylococcus aureus [23],2
same,Ratio,Staphylococcus aureus [24],2
same,Ratio,Staphylococcus aureus [25],2
same,Ratio,Staphylococcus aureus [26],2
same,Ratio,Staphylococcus aureus [27],2
same,Ratio,Staphylococcus aureus [28],2
same,Ratio,Staphylococcus aureus [29],2
same,Ratio,Staphylococcus aureus [30],2
same,Ratio,Staphylococcus aureus [31],2
same,Ratio,Staphylococcus aureus [32],2
same,Ratio,Staphylococcus aureus [33],2
same,MIC,Clostridioides difficile [34],0.125 µg/mL
same,MIC,Prevotella sp.,≥ 8190 µg/mL
